Test results taken from patent US20030157035A1, “PHOTO STABLE ORGANIC SUNSCREEN COMPOUNDS WITH ANTIOXIDANT PROPERTIES AND COMPOSITIONS OBTAINED THEREFROM” (EM Industries, priority 2001, published 2003).
Like-named read-outs stand apart in the source and are kept apart here.

Assays:
[1] = UV-visible absorption spectrum; assay type: physicochemical
Procedure: (§1) Each sunscreen compound is dissolved in 70% ethanol/30% water and the UV visible absorption spectrum measured with a Shimadza UV 2101-double beam spectrophotometer using the solvent as reference. A control solution of Octocrylene is prepared and the UV-visible absorption spectrum measured. Each solution is then illuminated for two hours in the solar simulator. After illumination, the absorption spectrum is again measured for each solution.

[2] = Photostability in Xe-arc solar simulator (loss of UV absorption); details: 70% ethanol/30% water, about 250 J/cm^2
Procedure: Compounds are illuminated in a solar simulator incorporating a 1 kw Xe arc lamp, optical bench and illumination chamber. The entire output of the illumination system is focused onto the face of a 1 centimeter Cuvette (an area of 4 cm^2) that contains the dilute samples of a compound of Formula I. The samples experience roughly 250 J/cm^2 of radiation between 290 and 400 nm over a period of two hours. The solutions contain between 0.0056 mg/ml and 2.5 mg/ml.
A solar simulator used for illumination of the samples in the experiments is constructed incorporating a 1 kw Xe arc lamp, optical bench and sample illumination chamber. The lamp output is filtered through a water filter with a course window to remove most of the infrared radiation and optical filters to remove wavelengths below 290 mn. The output of the illumination system is focused onto the face of a 1 cm quartz Cuvette that is thermally equilibrated with a constant temperature water bath at 25° C. A magnetic stir is mounted under the Cuvette so that the samples could be stirred while being illuminated. An electric shutter is controlled by a dark room timer to provide precise control of illumination times. The solar simulator is constructed to provide illumination that closely matches terrestrial sunlight. The solar simulator delivers roughly 250 J/cm^2 over a 2-hour period of illumination in a 290-490 nm range. This irradiance is determined using two nitrobenzaldehyde chemical actinometry. The irradiance is much higher than other solar simulator systems which typically illuminate a large area in order to illuminate many samples simultaneously rather than being focused down to a very small area.
as §1

[3] = DPPH test method (reducing activity of DPPH radical); assay type: biochemical; details: absorbance at 517 nm after 20 minutes
Procedure: A DPPH working solution is then prepared by diluting 100 mL of this concentrate to a final volume of 250 mL (100 μM/mL). A blank 13×100 mm borosilicate glass screw top tube of ethanol (USP) is used to zero the spectrometer (Milton Roy, Spectronic 20+) at 517 nm and a control tube of DPPH working solution is measured under identical conditions, and taken as 0% activity. […] After 20 minutes, the absorbance of each sample is read at 517 nm.
The percent reducing activity (%RA) is calculated using the following equation: [formula]
Where A(0) is the absorbance value of the DPPH working solution at 517nm zeroed against an ethanol blank and A(20) is the absorbance at 517 nm, 20 minutes after combining the antioxidant with the DPPH working solution.
The concentration of antioxidant (mg/ml) in the final assay mixture is calculated based on the dilution of respective aliquots of each compound in the final assay volume and %RA tabulated and plotted as percent activity at each concentration in the dilution series.
The antioxidant activity of selected compounds of this invention was determined from their reducing activity of a DPPH radical.

[4] = Stabilization of Avobenzone under solar simulator illumination (HPLC); assay type: physicochemical
Procedure: Individual solutions of selected sunscreen compounds (see Table 1) with Avobenzone were as follows. Each sunscreen compound was dissolved in 50% ethanol/50% H2O solution containing roughly an equal molar amount of Avobenzone. A similar solution containing Di-2-ethylhexyl-2,6-napthalene dicarboxylic acid (DENDA) and Avobenzone was also prepared. Each solution was then illuminated in the solar simulator as configured above for the photostability tests and aliquots of each solution were removed at 30-minute time intervals. These aliquots were injected into an HPLC and the loss of Avobenzone was followed with illumination time. The high performance liquid chromatograph (HPLC) used for all experiments reported therein incorporated a Spectra-Physics model P-200 pump with an Applied Biosystems model 785A UV-Visible detector with a Rheodyne manual injector incorporating a […] sample loop and a 150×4.6 mm reversed-phase C18 column (Alltech). All analyses were carried out under isocratic elution conditions using […] mixtures for the mobile phase at a flow rate of […] per minute. It was necessary to employ HPLC separation of Avobenzone from each of the sunscreen compounds to quantify Avobenzone due to the absorption spectra overlap with some of these compounds.

[5] = Product/Avobenzone (1:1, w/w), % Loss of Avobenzone by HPLC, solar simulator, 2 hrs

Row | Compound | λmax, nm (Ethanol) [1] | Photostability % Loss in 2 hrs [2] | Stabilization of Avobenzone % Loss of Avobenzone in 2 hrs [4] | Stabilization of Avobenzone % Loss of Avobenzone in 2 hrs [4, 5] | % Reducing Activity of DPPH Radical at 30 μg/ml [3]
1 | COc1ccc(C(=O)CC(=O)c2ccc(C(C)(C)C)cc2)cc1 [Avobenzone, reference compound] | 358 nm | 37% | – | – | –
2 | CCCCC(CC)COC(=O)C(=Cc1ccc(O)c(OC)c1)C(=O)OCC(CC)CCCC (stereo not shown) [Di-(2-Ethylhexyl)-3-methoxy-4-hydroxy benzylidene malonate] | 332 nm | – | 4.5% | – | 7.4%
3 | COc1cc(C=C(C(=O)OCCC(C)C)C(=O)OCCC(C)C)ccc1O [Di-isoamyl-3-methoxy-4-hydroxy benzylidene malonate] | 333 nm | – | 3.8% | – | 9.5%
4 | COc1cc(C=C(C(C)=O)C(=O)OCCC(C)C)ccc1O [Iso-amyl-alpha-acetyl-3-methoxy-4-hydroxy-cinnamate] | 339 nm | 4.1% | – | insignificant | 22%

Continued, in another order:

Row | λmax, nm (Ethanol) [1] | Photostability % Loss in 2 hrs [2] | Stabilization of Avobenzone % Loss of Avobenzone in 2 hrs [4] | Stabilization of Avobenzone % Loss of Avobenzone in 2 hrs [4, 5] | Compound | % Reducing Activity of DPPH Radical at 30 μg/ml [3]
5 | 341 nm | 3.2% | – | insignificant | COc1cc(C=C(C(C)=O)C(=O)OCCC(C)C)cc(C(C)C)c1O [Isoamyl-alpha-acetyl-3-methoxy-4-hydroxy-5-isopropyl-cinnamate] | 28%
6 | 303 nm | 2.8% | – | 1.5% | CCCCC(CC)COC(=O)C(C#N)=C(c1ccccc1)c1ccccc1 (stereo not shown) [Octocrylene, reference compound] | –
7 | 334 nm | – | 2.5% | – | CCCCC(CC)COC(=O)C(=Cc1cc(OC)c(O)c(C(C)C)c1)C(=O)OCC(CC)CCCC (stereo not shown) [di-(2-ethyhexyl)-3-methoxy-4-hydroxy-5-isopropyl-benzylidene malonate] | 11.2%
